Laboratory results: the NIST ThermoML archive (doi:10.1016/j.jct.2017.07.016)
± gives the expanded uncertainty stated by the source.

Legend:
[1] = 96.7 kPa, Liquid; for viscosity: Capillary tube (Ostwald / Ubbelohde) method; for mass density: Vibrating tube method
[2] = xn = mol fraction of the nth substance listed; settings: 96.7 kPa, Liquid, x2 = 0; for viscosity: Capillary tube (Ostwald / Ubbelohde) method; for mass density: Vibrating tube method

CC(=O)N(C)C [N,N-dimethylethanamide]
[1]
Settings | mass density [kg/m3] | viscosity [mPa·s]
303.15 K | 931.85 ± 2 | 0.891 ± 0.13
308.15 K | 927.26 ± 2 | 0.834 ± 0.12
313.15 K | 922.66 ± 2 | 0.785 ± 0.12
318.15 K | 918.06 ± 2 | 0.739 ± 0.11
323.15 K | 913.44 ± 1.9 | 0.698 ± 0.11
328.15 K | 908.81 ± 1.9 | 0.661 ± 0.099
333.15 K | 904.16 ± 1.9 | 0.627 ± 0.094
338.15 K | 899.53 ± 1.9 | 0.598 ± 0.09
343.15 K | 894.87 ± 1.9 | 0.567 ± 0.085
348.15 K | 890.19 ± 1.9 | 0.541 ± 0.081
353.15 K | 885.51 ± 1.9 | 0.516 ± 0.078

CN(C)C=O [dimethylformamide]
[1]
Settings | mass density [kg/m3] | viscosity [mPa·s]
303.15 K | 939.18 ± 1.9 | 0.766 ± 0.12
308.15 K | 934.41 ± 1.9 | 0.723 ± 0.11
313.15 K | 929.64 ± 1.9 | 0.685 ± 0.1
318.15 K | 924.86 ± 1.9 | 0.651 ± 0.098
323.15 K | 920.07 ± 1.9 | 0.619 ± 0.093
328.15 K | 915.26 ± 1.8 | 0.589 ± 0.088
333.15 K | 910.44 ± 1.8 | 0.562 ± 0.084
338.15 K | 905.6 ± 1.8 | 0.537 ± 0.081
343.15 K | 900.74 ± 1.8 | 0.514 ± 0.077
348.15 K | 895.87 ± 1.8 | 0.493 ± 0.074
353.15 K | 890.98 ± 1.8 | 0.473 ± 0.071

CN(C)C=O [dimethylformamide] + CCCCCCn1cc[n+](C)c1.[Cl-]
[2]
Settings | mass density [kg/m3] | viscosity [mPa·s]
303.15 K | 939.18 ± 1.9 | 0.766 ± 0.12
308.15 K | 934.41 ± 1.9 | 0.723 ± 0.11
313.15 K | 929.64 ± 1.9 | 0.685 ± 0.1
318.15 K | 924.86 ± 1.9 | 0.651 ± 0.098
323.15 K | 920.07 ± 1.9 | 0.619 ± 0.093
328.15 K | 915.26 ± 1.8 | 0.589 ± 0.088
333.15 K | 910.44 ± 1.8 | 0.562 ± 0.084
338.15 K | 905.6 ± 1.8 | 0.537 ± 0.081
343.15 K | 900.74 ± 1.8 | 0.514 ± 0.077
348.15 K | 895.87 ± 1.8 | 0.493 ± 0.074
353.15 K | 890.98 ± 1.8 | 0.473 ± 0.071

CCCCCCn1cc[n+](C)c1.[Cl-] [1-hexyl-3-methylimidazolium chloride]
[1]
Settings | mass density [kg/m3] | viscosity [mPa·s]
303.15 K | 1036.07 ± 2.2 | 5718.5 ± 960
308.15 K | 1033.22 ± 2.2 | 3430.8 ± 560
313.15 K | 1030.38 ± 2.2 | 2146.1 ± 350
318.15 K | 1027.56 ± 2.2 | 1390.4 ± 220
323.15 K | 1024.75 ± 2.2 | 928.1 ± 150
328.15 K | 1021.92 ± 2.2 | 638.79 ± 100
333.15 K | 1019.13 ± 2.2 | 453.59 ± 70
338.15 K | 1016.38 ± 2.2 | 327.52 ± 50
343.15 K | 1013.65 ± 2.2 | 243.04 ± 37
348.15 K | 1010.91 ± 2.2 | 183.45 ± 28
353.15 K | 1008.18 ± 2.2 | 140.06 ± 21

CC(=O)N(C)C [N,N-dimethylethanamide] + CCCCCCn1cc[n+](C)c1.[Cl-]
[2]
Settings | mass density [kg/m3] | viscosity [mPa·s]
303.15 K | 931.85 ± 2 | 0.891 ± 0.13
308.15 K | 927.26 ± 2 | 0.834 ± 0.12
313.15 K | 922.66 ± 2 | 0.785 ± 0.12
318.15 K | 918.06 ± 2 | 0.739 ± 0.11
323.15 K | 913.44 ± 1.9 | 0.698 ± 0.11
328.15 K | 908.81 ± 1.9 | 0.661 ± 0.099
333.15 K | 904.16 ± 1.9 | 0.627 ± 0.094
338.15 K | 899.53 ± 1.9 | 0.598 ± 0.09
343.15 K | 894.87 ± 1.9 | 0.567 ± 0.085
348.15 K | 890.19 ± 1.9 | 0.541 ± 0.081
353.15 K | 885.51 ± 1.9 | 0.516 ± 0.078

C[S+](C)[O-] [dimethyl sulfoxide] + CCCCCCn1cc[n+](C)c1.[Cl-]
[2]
Settings | mass density [kg/m3] | viscosity [mPa·s]
303.15 K | 1090.29 ± 2.2 | 1.8 ± 0.27
308.15 K | 1085.28 ± 2.2 | 1.665 ± 0.25
313.15 K | 1080.3 ± 2.2 | 1.529 ± 0.23
318.15 K | 1075.31 ± 2.2 | 1.407 ± 0.21
323.15 K | 1070.32 ± 2.2 | 1.304 ± 0.2
328.15 K | 1065.33 ± 2.1 | 1.211 ± 0.18
333.15 K | 1060.34 ± 2.1 | 1.127 ± 0.17
338.15 K | 1055.34 ± 2.1 | 1.056 ± 0.16
343.15 K | 1050.35 ± 2.1 | 0.989 ± 0.15
348.15 K | 1045.34 ± 2.1 | 0.931 ± 0.14
353.15 K | 1040.33 ± 2.1 | 0.878 ± 0.13

C[S+](C)[O-] [dimethyl sulfoxide]
[1]
Settings | mass density [kg/m3] | viscosity [mPa·s]
303.15 K | 1090.29 ± 2.2 | 1.8 ± 0.27
308.15 K | 1085.28 ± 2.2 | 1.665 ± 0.25
313.15 K | 1080.3 ± 2.2 | 1.529 ± 0.23
318.15 K | 1075.31 ± 2.2 | 1.407 ± 0.21
323.15 K | 1070.32 ± 2.2 | 1.304 ± 0.2
328.15 K | 1065.33 ± 2.1 | 1.211 ± 0.18
333.15 K | 1060.34 ± 2.1 | 1.127 ± 0.17
338.15 K | 1055.34 ± 2.1 | 1.056 ± 0.16
343.15 K | 1050.35 ± 2.1 | 0.989 ± 0.15
348.15 K | 1045.34 ± 2.1 | 0.931 ± 0.14
353.15 K | 1040.33 ± 2.1 | 0.878 ± 0.13

c1ccncc1 [pyridine]
[1]
Settings | mass density [kg/m3] | viscosity [mPa·s]
303.15 K | 973.09 ± 1.9 | 0.843 ± 0.13
308.15 K | 968.06 ± 1.9 | 0.789 ± 0.12
313.15 K | 963.02 ± 1.9 | 0.741 ± 0.11
318.15 K | 957.97 ± 1.9 | 0.697 ± 0.11
323.15 K | 952.9 ± 1.9 | 0.658 ± 0.099
328.15 K | 947.82 ± 1.9 | 0.622 ± 0.093
333.15 K | 942.72 ± 1.9 | 0.59 ± 0.089
338.15 K | 937.6 ± 1.9 | 0.56 ± 0.084
343.15 K | 932.46 ± 1.9 | 0.533 ± 0.08
348.15 K | 927.3 ± 1.9 | 0.507 ± 0.076
353.15 K | 922.12 ± 1.9 | 0.485 ± 0.073

c1ccncc1 [pyridine] + CCCCCCn1cc[n+](C)c1.[Cl-]
[2]
Settings | mass density [kg/m3] | viscosity [mPa·s]
303.15 K | 973.09 ± 1.9 | 0.843 ± 0.13
308.15 K | 968.06 ± 1.9 | 0.789 ± 0.12
313.15 K | 963.02 ± 1.9 | 0.741 ± 0.11
318.15 K | 957.97 ± 1.9 | 0.697 ± 0.11
323.15 K | 952.9 ± 1.9 | 0.658 ± 0.099
328.15 K | 947.82 ± 1.9 | 0.622 ± 0.093
333.15 K | 942.72 ± 1.9 | 0.59 ± 0.089
338.15 K | 937.6 ± 1.9 | 0.56 ± 0.084
343.15 K | 932.46 ± 1.9 | 0.533 ± 0.08
348.15 K | 927.3 ± 1.9 | 0.507 ± 0.076
353.15 K | 922.12 ± 1.9 | 0.485 ± 0.073
